Assay results as given in patent EP4707277A1, “NOVEL HETEROCYCLIC AMINE DERIVATIVES AND PHARMACEUTICAL COMPOSITION COMPRISING SAME” (Daewoong Pharmaceutical Co., Ltd., priority 2023, dated 2024).
Like-named read-outs stand apart in the source and are kept apart here.

Key:
[1] = molecular target: T1, BTK (Homo sapiens, UniProt Q06187); assay: Inhibitory activity against BTK, ADP-Glo Kinase system (Promega); type: biochemical
T1 construct: purchased Signalchem B10-10H
In short: (§1)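 ADP-Glo luminescent ADP detection with recombinant human ITK (4 ng/reaction) or BTK (10 ng/reaction) and poly(Glu4,Tyr1) substrate at 0.2 µg/µl. Buffer: Tris pH 7.5, MgCl2, MnCl2, BSA, DTT. ATP 1 mM or Km (BTK 10 µM, ITK 25 µM); 1% DMSO; 1 h at 30°C; IC50 from curve fit.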

[2] = molecular target: T2, ITK (Homo sapiens, UniProt Q08881); assay: Inhibitory activity against ITK, ADP-Glo Kinase system (Promega); type: biochemical
T2 construct: purchased Signalchem I13-11G-10
T2 sequence (Q08881 1-620): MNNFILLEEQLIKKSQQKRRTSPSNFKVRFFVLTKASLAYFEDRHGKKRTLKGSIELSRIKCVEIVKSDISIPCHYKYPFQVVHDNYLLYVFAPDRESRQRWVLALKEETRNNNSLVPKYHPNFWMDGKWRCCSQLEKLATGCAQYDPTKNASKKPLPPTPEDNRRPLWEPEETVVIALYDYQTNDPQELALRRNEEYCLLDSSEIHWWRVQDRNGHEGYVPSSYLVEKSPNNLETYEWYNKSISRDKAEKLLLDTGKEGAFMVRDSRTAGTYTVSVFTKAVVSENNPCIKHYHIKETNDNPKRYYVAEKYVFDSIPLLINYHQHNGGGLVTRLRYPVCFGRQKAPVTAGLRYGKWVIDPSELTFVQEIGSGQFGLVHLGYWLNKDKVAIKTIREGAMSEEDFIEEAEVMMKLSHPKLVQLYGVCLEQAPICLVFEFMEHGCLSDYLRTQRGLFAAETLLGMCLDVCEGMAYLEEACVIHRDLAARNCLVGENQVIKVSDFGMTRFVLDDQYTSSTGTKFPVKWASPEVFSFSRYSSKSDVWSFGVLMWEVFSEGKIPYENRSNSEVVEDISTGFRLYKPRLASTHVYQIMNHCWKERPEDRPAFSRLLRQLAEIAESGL
In short: as §1

[3] = 1mM ATP, read-out: BTK IC50(nM) 1mM ATP
[4] = 1mM ATP, read-out: ITK IC50(nM) 1mM ATP
[5] = Km ATP (BTK: 10 uM), read-out: BTK IC50(nM) Km ATP
[6] = Km ATP (ITK: 25uM), read-out: ITK IC50(nM) Km ATP

T1 sequence (Q06187 whole entry): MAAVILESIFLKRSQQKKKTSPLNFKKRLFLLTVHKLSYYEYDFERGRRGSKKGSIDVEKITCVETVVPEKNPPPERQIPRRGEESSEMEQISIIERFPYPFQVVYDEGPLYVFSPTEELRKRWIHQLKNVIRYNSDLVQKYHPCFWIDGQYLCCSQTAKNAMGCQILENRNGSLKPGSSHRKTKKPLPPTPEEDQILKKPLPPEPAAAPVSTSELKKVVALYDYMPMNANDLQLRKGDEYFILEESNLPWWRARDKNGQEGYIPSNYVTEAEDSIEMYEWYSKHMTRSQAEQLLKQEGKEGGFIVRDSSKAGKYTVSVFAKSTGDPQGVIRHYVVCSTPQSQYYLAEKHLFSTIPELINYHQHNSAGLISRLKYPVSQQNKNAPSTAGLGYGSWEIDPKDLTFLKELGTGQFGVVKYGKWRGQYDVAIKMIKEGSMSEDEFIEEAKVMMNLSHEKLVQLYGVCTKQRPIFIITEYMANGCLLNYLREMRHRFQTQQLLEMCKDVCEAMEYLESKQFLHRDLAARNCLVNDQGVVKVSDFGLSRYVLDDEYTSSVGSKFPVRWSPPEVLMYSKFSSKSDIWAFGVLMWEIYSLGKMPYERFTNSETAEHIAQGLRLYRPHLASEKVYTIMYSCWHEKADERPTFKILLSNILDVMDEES

SMILES | IC50 [1, 3] | IC50 [2, 4] | IC50 [1, 5] | IC50 [2, 6]
C=CC(=O)Nc1cc(-c2nc(Nc3ncc(C)s3)cc3c2ccn3CC(F)(F)F)c(F)cc1F [Example 77, N-(2,4-difluoro-5-(6-((5-methylthiazol-2-yl)amino)-1-(2,2,2-trifluoroethyl)-1H-pyrrolo[3,2-c]pyridin-4-yl)phenyl)acrylamide] | ≤ 20 nM | 20 to 100 nM | – | –
C=CC(=O)N1C2C=C(c3nc(Nc4ncc(C)s4)cc4c3ccn4C(C)C)CC1CC2 (centres unmarked) [Example 29, 1-(3-(1-isopropyl-6-((5-methylthiazol-2-yl)amino)-1H-pyrrolo[3,2-c]pyridin-4-yl)-8-azabicyclo[3.2.1]oct-2-en-8-yl)prop-2-en-1-one] | – | – | ≤ 20 nM | ≤ 20 nM
C=CC(=O)N1CC[C@H](Oc2nc(Nc3cc(C(F)(F)F)ncn3)cc3c2ccn3C(C)C)C1 [Example 95, (S)-1-(3-((1-isopropyl-6-((6-(trifluoromethyl)pyrimidin-4-yl)amino)-1H-pyrrolo[3,2-c]pyridin-4-yl)oxy)pyrrolidin-1-yl)prop-2-en-1-one] | ≤ 20 nM | 100 to 500 nM | – | –
C=CC(=O)Nc1ccc(F)c(-c2nc(Nc3ncc(C)s3)cc3c2ccn3C(C)C)c1 [Example 59, N-(4-fluoro-3-(1-isopropyl-6-((5-methylthiazol-2-yl)amino)-1H-pyrrolo[3,2-c]pyridin-4-yl)phenyl)acrylamide] | ≤ 20 nM | ≤ 20 nM | – | –
C=CC(=O)Nc1ccc(F)c(-c2nc(Nc3ncc(C)s3)cc3c2ccn3CC2CCOC2)c1 (centres unmarked) [Example 71, N-(4-fluoro-3-(6-((5-methylthiazol-2-yl)amino)-1-((tetrahydrofuran-3-yl)methyl)-1H-pyrrolo[3,2-c]pyridin-4-yl)phenyl)acrylamide] | – | – | ≤ 20 nM | ≤ 20 nM
C=CC(=O)Nc1cc(-c2nc(Nc3ncc(C)s3)cc3c2ccn3C(C)C)c(F)cc1F [Example 60, N-(2,4-difluoro-5-(1-isopropyl-6-((5-methzylthiazol-2-yl)amino)-1H-pyrrolo[3,2-c]pyridin-4-yl)phenyl)acrylamide] | ≤ 20 nM | ≤ 20 nM | ≤ 20 nM | ≤ 20 nM
C=CC(=O)N1CC=C(c2nc(Nc3ncc(C)s3)cc3c2ccn3C)C1 [Example 3, 1-(3-(1-methyl-6-((5-methylthiazol-2-yl)amino)-1H-pyrrolo[3,2-c]pyridin-4-yl)-2,5-dihydro-1H-pyrrol-1-yl)prop-2-en-1-one] | – | – | 100 to 500 nM | 100 to 500 nM

Other lines, results leading:

IC50 [1, 3] | IC50 [2, 4] | IC50 [1, 5] | IC50 [2, 6] | SMILES
20 to 100 nM | > 500 nM | – | – | C=CC(=O)N1CCC[C@H]1COc1nc(Nc2ncc(C)s2)cc2c1ccn2C(C)C [Example 219, (S)-1-(2-(((1-isopropyl-6-((5-methylthiazol-2-yl)amino)-1H-pyrrolo[3,2-c]pyridin-4-yl)oxy)methyl)pyrrolidin-1-yl)prop-2-en-1-one]
> 500 nM | > 500 nM | – | – | C=CC(=O)N1C[C@@H](F)[C@@H](Oc2nc(Nc3ncc(C)s3)cc3c2ccn3CC(C)C)C1 [Example 135, 1-((3R,4S)-3-fluoro-4-((1-isobutyl-6-((5-methylthiazol-2-yl)amino)-1H-pyrrolo[3,2-c]pyridin-4-yl)oxy)pyrrolidin-1-yl)prop-2-en-1-one]
≤ 20 nM | 20 to 100 nM | – | – | C=CC(=O)N1CCC[C@H](Oc2nc(Nc3ncc(C)s3)cc3c2ccn3CC)C1 [Example 153, (S)-1-(3-((1-ethyl-6-((5-methylthiazol-2-yl)amino)-1H-pyrrolo[3,2-c]pyridin-4-yl)oxy)piperidin-1-yl)prop-2-en-1-one]
> 500 nM | > 500 nM | – | – | C=CC(=O)N1CC[C@@H](Oc2nc(Nc3ncc(C)s3)cc3c2ccn3C(C)C)C1 [Example 162, (R)-1-(3-((1-isopropyl-6-((5-methylthiazol-2-yl)amino)-1H-pyrrolo[3,2-c]pyridin-4-yl)oxy)pyrrolidin-1-yl)prop-2-en-1-one]
≤ 20 nM | ≤ 20 nM | – | – | C=CC(=O)N1CC[C@H](Oc2nc(Nc3ncc(C)s3)cc3c2ccn3CCC)C1 [Example 126, (S)-1-(3-((6-((5-methylthiazol-2-yl)amino)-1-propyl-1H-pyrrolo[3,2-c]pyridin-4-yl)oxy)pyrrolidin-1-yl)prop-2-en-1-one]
